In ChEMBL document CHEMBL5550123, “Discovery of novel pyridone-benzamide derivatives possessing a 1-methyl-2-benzimidazolinone moiety as potent EZH2 inhibitors for the treatment of B-cell lymphomas” (Bioorg Med Chem, 2024):

Columns and labels:
KARPAS-422 [1] = test: Antiproliferative activity against human KARPAS-422 cells assessed as inhibition of cell growth measured after 72 hrs by CCK-8 method; assay type: functional, cell-based; settings: KARPAS-422, 72 h
[2] = Inhibition of EZH2 Y641F mutant (unknown origin) preincubated for 15 mins followed by substrate addition and measured after 45 mins by AlphaLISA assay; parameters: species or system Homo sapiens
[3] = Inhibition of EZH2 Y641N mutant (unknown origin) preincubated for 15 mins followed by substrate addition and measured after 45 mins by AlphaLISA assay; parameters: species or system Homo sapiens
[4] = Metabolic stability in human liver microsomes assessed as half life at 1 uM measured upto 60 mins in presence of NADPH by LC-MS/MS analysis; assay type: ADME, Microsome
[5] = Metabolic stability in human liver microsomes assessed as intrinsic clearance at 1 uM measured upto 60 mins in presence of NADPH by LC-MS/MS analysis; assay type: ADME, Microsome; settings: read-out: CLH
KARPAS-422 [6] = test: Induction of apoptosis in human KARPAS-422 cells assessed as viable cells at 2.5 nM incubated for 72 hrs again compound diluted in growth medium measured after 96 hrs by annexin-V FITC and propidium iodide based flow cytometry analysis (reference value: 95.57%); assay type: functional; settings: time 168 hrs, read-out: Activity
KARPAS-422 [7] = test: Induction of apoptosis in human KARPAS-422 cells assessed as viable cells at 5 nM incubated for 72 hrs again compound diluted in growth medium measured after 96 hrs by annexin-V FITC and propidium iodide based flow cytometry analysis (reference value: 95.57%); assay type: functional; settings: time 168 hrs, read-out: Activity
KARPAS-422 [8] = test: Induction of apoptosis in human KARPAS-422 cells assessed as viable cells at 10 nM incubated for 72 hrs again compound diluted in growth medium measured after 96 hrs by annexin-V FITC and propidium iodide based flow cytometry analysis (reference value: 95.57%); assay type: functional; settings: time 168 hrs, read-out: Activity
KARPAS-422 [9] = test: Induction of apoptosis in human KARPAS-422 cells assessed as viable cells at 20 nM incubated for 72 hrs again compound diluted in growth medium measured after 96 hrs by annexin-V FITC and propidium iodide based flow cytometry analysis (reference value: 95.57%); assay type: functional; settings: time 168 hrs, read-out: Activity
KARPAS-422 [10] = test: Induction of apoptosis in human KARPAS-422 cells assessed as early apoptotic cells at 2.5 nM incubated for 72 hrs again compound diluted in growth medium measured after 96 hrs by annexin-V FITC and propidium iodide based flow cytometry analysis (reference value: 2.62%); assay type: functional; settings: time 168 hrs
KARPAS-422 [11] = test: Induction of apoptosis in human KARPAS-422 cells assessed as early apoptotic cells at 5 nM incubated for 72 hrs again compound diluted in growth medium measured after 96 hrs by annexin-V FITC and propidium iodide based flow cytometry analysis (reference value: 2.62%); assay type: functional; settings: time 168 hrs
KARPAS-422 [12] = test: Induction of apoptosis in human KARPAS-422 cells assessed as early apoptotic cells at 10 nM incubated for 72 hrs again compound diluted in growth medium measured after 96 hrs by annexin-V FITC and propidium iodide based flow cytometry analysis (reference value: 2.62%); assay type: functional; settings: time 168 hrs
KARPAS-422 [13] = test: Induction of apoptosis in human KARPAS-422 cells assessed as early apoptotic cells at 20 nM incubated for 72 hrs again compound diluted in growth medium measured after 96 hrs by annexin-V FITC and propidium iodide based flow cytometry analysis (reference value: 2.62%); assay type: functional; settings: time 168 hrs
KARPAS-422 [14] = test: Induction of apoptosis in human KARPAS-422 cells assessed as late apoptotic cells at 2.5 nM incubated for 72 hrs again compound diluted in growth medium measured after 96 hrs by annexin-V FITC and propidium iodide based flow cytometry analysis (reference value: 0.74%); assay type: functional; settings: time 168 hrs
KARPAS-422 [15] = test: Induction of apoptosis in human KARPAS-422 cells assessed as late apoptotic cells at 5 nM incubated for 72 hrs again compound diluted in growth medium measured after 96 hrs by annexin-V FITC and propidium iodide based flow cytometry analysis (reference value: 0.74%); assay type: functional; settings: time 168 hrs
KARPAS-422 [16] = test: Induction of apoptosis in human KARPAS-422 cells assessed as late apoptotic cells at 10 nM incubated for 72 hrs again compound diluted in growth medium measured after 96 hrs by annexin-V FITC and propidium iodide based flow cytometry analysis (reference value: 0.74%); assay type: functional; settings: time 168 hrs
KARPAS-422 [17] = test: Induction of apoptosis in human KARPAS-422 cells assessed as late apoptotic cells at 20 nM incubated for 72 hrs again compound diluted in growth medium measured after 96 hrs by annexin-V FITC and propidium iodide based flow cytometry analysis (reference value: 0.74%); assay type: functional; settings: time 168 hrs
KARPAS-422 [18] = test: Induction of apoptosis in human KARPAS-422 cells assessed as late apoptotic cells at 2.5 nM incubated for 72 hrs again compound diluted in growth medium measured after 96 hrs by annexin-V FITC and propidium iodide based flow cytometry analysis (reference value: […]%); assay type: functional; settings: time 168 hrs
KARPAS-422 [19] = test: Induction of apoptosis in human KARPAS-422 cells assessed as late apoptotic cells at 5 nM incubated for 72 hrs again compound diluted in growth medium measured after 96 hrs by annexin-V FITC and propidium iodide based flow cytometry analysis (reference value: […]%); assay type: functional; settings: time 168 hrs
KARPAS-422 [20] = test: Induction of apoptosis in human KARPAS-422 cells assessed as late apoptotic cells at 10 nM incubated for 72 hrs again compound diluted in growth medium measured after 96 hrs by annexin-V FITC and propidium iodide based flow cytometry analysis (reference value: […]%); assay type: functional; settings: time 168 hrs
KARPAS-422 [21] = test: Induction of apoptosis in human KARPAS-422 cells assessed as late apoptotic cells at 20 nM incubated for 72 hrs again compound diluted in growth medium measured after 96 hrs by annexin-V FITC and propidium iodide based flow cytometry analysis (reference value: […]%); assay type: functional; settings: time 168 hrs
KARPAS-422 [22] = test: Induction of cell cycle arrest in human KARPAS-422 cells assessed as accumulation of cells at G1 phase at 2.5 nM incubated for 72 hrs again compound diluted in growth medium measured after 96 hrs by propidium iodide staining based flow cytometry analysis (reference value: 47.71%); assay type: functional; settings: time 168 hrs
KARPAS-422 [23] = test: Induction of cell cycle arrest in human KARPAS-422 cells assessed as accumulation of cells at G1 phase at 5 nM incubated for 72 hrs again compound diluted in growth medium measured after 96 hrs by propidium iodide staining based flow cytometry analysis (reference value: 47.71%); assay type: functional; settings: time 168 hrs
KARPAS-422 [24] = test: Induction of cell cycle arrest in human KARPAS-422 cells assessed as accumulation of cells at G1 phase at 10 nM incubated for 72 hrs again compound diluted in growth medium measured after 96 hrs by propidium iodide staining based flow cytometry analysis (reference value: 47.71%); assay type: functional; settings: time 168 hrs
KARPAS-422 [25] = test: Induction of cell cycle arrest in human KARPAS-422 cells assessed as accumulation of cells at G1 phase at 20 nM incubated for 72 hrs again compound diluted in growth medium measured after 96 hrs by propidium iodide staining based flow cytometry analysis (reference value: 47.71%); assay type: functional; settings: time 168 hrs
KARPAS-422 [26] = test: Induction of cell cycle arrest in human KARPAS-422 cells assessed as accumulation of cells at S phase at 2.5 nM incubated for 72 hrs again compound diluted in growth medium measured after 96 hrs by propidium iodide staining based flow cytometry analysis (reference value: 35.89%); assay type: functional; settings: time 168 hrs
KARPAS-422 [27] = test: Induction of cell cycle arrest in human KARPAS-422 cells assessed as accumulation of cells at S phase at 5 nM incubated for 72 hrs again compound diluted in growth medium measured after 96 hrs by propidium iodide staining based flow cytometry analysis (reference value: 35.89%); assay type: functional; settings: time 168 hrs
KARPAS-422 [28] = test: Induction of cell cycle arrest in human KARPAS-422 cells assessed as accumulation of cells at S phase at 10 nM incubated for 72 hrs again compound diluted in growth medium measured after 96 hrs by propidium iodide staining based flow cytometry analysis (reference value: 35.89%); assay type: functional; settings: time 168 hrs
KARPAS-422 [29] = test: Induction of cell cycle arrest in human KARPAS-422 cells assessed as accumulation of cells at S phase at 20 nM incubated for 72 hrs again compound diluted in growth medium measured after 96 hrs by propidium iodide staining based flow cytometry analysis (reference value: 35.89%); assay type: functional; settings: time 168 hrs
KARPAS-422 [30] = test: Induction of cell cycle arrest in human KARPAS-422 cells assessed as accumulation of cells at G2 phase at 2.5 nM incubated for 72 hrs again compound diluted in growth medium measured after 96 hrs by propidium iodide staining based flow cytometry analysis (reference value: 16.41%); assay type: functional; settings: time 168 hrs
KARPAS-422 [31] = test: Induction of cell cycle arrest in human KARPAS-422 cells assessed as accumulation of cells at G2 phase at 5 nM incubated for 72 hrs again compound diluted in growth medium measured after 96 hrs by propidium iodide staining based flow cytometry analysis (reference value: 16.41%); assay type: functional; settings: time 168 hrs
KARPAS-422 [32] = test: Induction of cell cycle arrest in human KARPAS-422 cells assessed as accumulation of cells at G2 phase at 10 nM incubated for 72 hrs again compound diluted in growth medium measured after 96 hrs by propidium iodide staining based flow cytometry analysis (reference value: 16.41%); assay type: functional; settings: time 168 hrs
KARPAS-422 [33] = test: Induction of cell cycle arrest in human KARPAS-422 cells assessed as accumulation of cells at G2 phase at 20 nM incubated for 72 hrs again compound diluted in growth medium measured after 96 hrs by propidium iodide staining based flow cytometry analysis (reference value: 16.41%); assay type: functional; settings: time 168 hrs
KARPAS-422 [34] = test: Induction of apoptosis in human KARPAS-422 cells incubated for 72 hrs again compound diluted in growth medium measured after 96 hrs by annexin-V FITC and propidium iodide based flow cytometry analysis; assay type: functional, cell-based; settings: dose 2.5-20 nM, time 168.0 hrs

IC50 (KARPAS-422 [1]): 3.52 nM
IC50 [2]: 0.03 nM
IC50 [3]: 0.08 nM
half-life at 1 µM [4]: 2.96 h
microsomal CLint at 1 µM [5]: 7.87 µL/min/mg
Compound: CCN(c1cc(-c2ccc3c(c2)n(C)c(=O)n3C2CCN(C)CC2)cc(C(=O)NCc2c(C)cc(C)[nH]c2=O)c1C)C1CCC(N(C)C)CC1 (centres undefined)
viability at 0.0025 µM (KARPAS-422 [6]): 89.3%
viability at 0.005 µM (KARPAS-422 [7]): 86.7%
viability at 0.01 µM (KARPAS-422 [8]): 81.8%
viability at 0.02 µM (KARPAS-422 [9]): 73.8%
Activity (KARPAS-422 [10]): 4.23%
Activity (KARPAS-422 [11]): 2.29%
Activity (KARPAS-422 [12]): 7.93%
Activity (KARPAS-422 [13]): 7.09%
Activity (KARPAS-422 [14]): 2.57%
Activity (KARPAS-422 [15]): 8.08%
Activity (KARPAS-422 [16]): 5.47%
Activity (KARPAS-422 [17]): 12.28%
Activity (KARPAS-422 [18]): 3.84%
Activity (KARPAS-422 [19]): 2.96%
Activity (KARPAS-422 [20]): 4.8%
Activity (KARPAS-422 [21]): 6.81%
Activity (KARPAS-422 [22]): 52.26%
Activity (KARPAS-422 [23]): 55.91%
Activity (KARPAS-422 [24]): 59.1%
Activity (KARPAS-422 [25]): 65.03%
Activity (KARPAS-422 [26]): 31.43%
Activity (KARPAS-422 [27]): 28.46%
Activity (KARPAS-422 [28]): 26.31%
Activity (KARPAS-422 [29]): 24.24%
Activity (KARPAS-422 [30]): 16.32%
Activity (KARPAS-422 [31]): 15.64%
Activity (KARPAS-422 [32]): 14.6%
Activity (KARPAS-422 [33]): 10.74%
Activity (KARPAS-422 [34]): Dose-Dependent Effect
